Assay results taken from PubChem BioAssay (NCI).
Values joined by “and” are separate entries in the source; they are usually repeats but may differ in a detail not shown here. Equal values may be shown once.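 Dose response: 5 concentrations. Exposure: 48 h. Format: 96-well plates. Endpoint: linear interpolation; highest concentration if not reached. GI50 is the concentration that inhibits growth by half. TGI: total growth inhibition.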 Active and inactive are the calls of the source. Rule as the data show it: active = GI50 below about 0.43 µM; inactive = the rest.

Tests used:
Assay in all cases: DTP human tumour cell line panel, 48 h
DMS 114 small cell lung = system: DMS 114 small cell lung
HOP-18 NSCLC = system: HOP-18 NSCLC
KM20L2 colon = system: KM20L2 colon
XF 498 CNS = system: XF 498 CNS
MCF7 breast = system: MCF7 breast
MDA-MB-435 = system: MDA-MB-435
NCI/ADR-RES ovarian = system: NCI/ADR-RES ovarian
T-47D breast = system: T-47D breast

Structure (SMILES)	TGI (DMS 114 small cell lung)	TGI (HOP-18 NSCLC) [µM]	TGI (KM20L2 colon)	TGI (XF 498 CNS)	also measured
C=C1C(=O)OC2/C=C(\C=O)CC/C=C(\C)C(O)C[C@@H]12 (stereo not given in full)	26.6 µM	31.2	22.4 µM	16.1 µM	–
COc1ccc2c(c1)[n+]([O-])c(/C(C)=N/NC(=O)CC#N)c[n+]2[O-]	> 100 µM	> 100	> 100 µM	> 100 µM	–
COC(=O)C1=C(CS(=O)c2ccccc2[N+](=O)[O-])ON(C)C1c1ccccc1 (stereo not given)	65.5 µM	> 100	85.1 µM	86.2 µM	–
O=C1CCC(O)=C1O	> 100 µM	> 100	> 100 µM	> 100 µM	–
S=c1nc(-c2cccnc2)[nH][nH]1	> 100 µM	> 100	> 100 µM	> 100 µM	–
COc1ccc(/C=C2\C(=O)N(C(=O)Cc3ccccc3)N=C2C)cc1OC	> 100 µM	> 100	–	> 100 µM	–
O=C(OC[C@H]1O[C@@H](OC(=O)c2cc(O)c(O)c(O)c2)[C@H](OC(=O)c2cc(O)c(O)c(O)c2)[C@@H](OC(=O)c2cc(O)c(O)c(O)c2)[C@@H]1OC(=O)c1cc(O)c(O)c(O)c1)c1cc(O)c(O)c(O)c1	15.9 µM	> 100	> 100 µM	22.5 µM	–
CCN(CC)c1ccc2c(c1)Nc1cc(=C(C#N)C#N)c3ccccc3c1=N2	> 100 µM	> 100	> 100 µM	> 100 µM	–
C=C=C(C(=O)OC)S(=O)c1ccc([N+](=O)[O-])cc1[N+](=O)[O-] (stereo not given)	45.6 µM	98.7	63.8 µM	> 71.2 µM	–
O=Cc1ccc(-c2cccs2)s1	> 100 µM	> 100	> 100 µM	11.5 µM	TGI (MCF7 breast): 17.6 µM; TGI (MDA-MB-435): > 100 µM; TGI (NCI/ADR-RES ovarian): > 100 µM; TGI (T-47D breast): > 100 µM
Nc1nc(CCC(=O)Nc2cccc(C(F)(F)F)c2)cc(-c2ccc3ccccc3c2)n1	> 100 µM	> 100	> 100 µM	> 100 µM	–
O=[N+]([O-])c1ccc2c(c1)[O][Sn][O]2	> 150 µg/mL	–	–	–	GI50 (DMS 114 small cell lung): 66.2 µg/mL; outcome (HOP-18 NSCLC): inactive; outcome (KM20L2 colon): inactive; outcome (XF 498 CNS): inactive
COC(=O)c1nc(N)[nH]c(=O)c1CCCCCc1c(C(=O)OC)nc(N)[nH]c1=O	> 50 µM	> 50	> 50 µM	> 50 µM	–
CN[C@@H]1C[C@H]2O[C@@](C)([C@@H]1OC)n1c3ccccc3c3c4c(c5c6ccccc6n2c5c31)C(=O)N[C@@H]4O	1.58 µM	0.268	2.53 µM	0.463 µM	TGI (MCF7 breast): 0.3 µM and 2.51 µM; GI50 (MDA-MB-435): 0.0478 µM; TGI (MDA-MB-435): 0.3 µM and 1.88 µM; GI50 (NCI/ADR-RES ovarian): 0.105 µM; TGI (NCI/ADR-RES ovarian): 0.3 µM and 0.42 µM
CC[C@@]1(O)C(=O)OCc2c1cc1n(c2=O)Cc2cc3cc(N)ccc3nc2-1	–	> 100	0.854 µM and 0.547 µM	1.39 µM and 0.864 µM	GI50 (KM20L2 colon): 0.0314 µM and 0.0373 µM; GI50 (MCF7 breast): 0.00165 µM; TGI (MCF7 breast): 5.73 µM; GI50 (MDA-MB-435): 0.12 µM and 0.0188 µM; TGI (MDA-MB-435): 0.663 µM and 0.133 µM; TGI (NCI/ADR-RES ovarian): 0.169 µM and 0.116 µM; GI50 (T-47D breast): 0.0476 µM; GI50 (XF 498 CNS): 0.149 µM and 0.138 µM
CCOC(=O)COS(=O)(=O)C(F)(F)F	31.7 µM	> 100	> 100 µM	> 100 µM	–
